Calls of active or inactive are those of the source. No cut-off for these calls is given here.
Columns and labels:
PC-3 [1] = assay: Induction of immunogenic cell death in human PC-3 cells assessed as increase in CRT translocation to cell surface at 200 nM measured after 12 hrs in presence of NAC by DAPI staining based analysis; assay type: functional
[2] = Toxicity in ICR mouse assessed as effect on CK level at 10 mg/kg, ip measured for 14 days; assay type: organism-based; details: in vivo, 336 h, time 14 day
[3] = Anticancer activity against mouse RM1 cells assessed as increase in mean fluorescence intensity at 400 nM measured after 24 hrs by flow cytometry analysis (reference value: 7.40+/-3.96 ); assay type: functional
PC-3 [4] = assay: Induction of cell cycle arrest in human PC-3 cells assessed as accumulation of cells at G1 phase at 100 nM incubated for 24 hrs by flow cytometry analysis (reference value: 49.4%); assay type: functional
PC-3 [5] = assay: Induction of apoptosis in human PC-3 cells assessed as increase in bax level at 50 to 200 nM incubated for 24 hrs by Western blot analysis; assay type: functional, cell-based; details: dose 50-200 nM
PC-3 [6] = assay: Inhibition of V-ATPase activity in human PC-3 cells measured after 24 hrs by colorimetric assay; assay type: cell-based; details: dose 50-800 nM
PC-3 [7] = assay: Induction of apoptosis in human PC-3 cells assessed as late apoptotic cells at 50 nM measured after 24 hrs by annexin V-FITC and PI staining based flow cytometry analysis (reference value: 2.37%); assay type: functional
[8] = Toxicity in ICR mouse assessed as effect on lymphocytes at 10 mg/kg, ip measured for 14 days; assay type: organism-based; details: in vivo, 336 h, time 14 day
PC-3 [9] = assay: Induction of apoptosis in human PC-3 cells assessed as increase in ADP-ribose level at 50 to 200 nM incubated for 24 hrs by Western blot analysis; assay type: functional, cell-based; details: dose 50-200 nM
PC-3 [10] = assay: Antiproliferative activity against human PC-3 cells assessed as inhibition of cell growth after 72 hrs by MTT assay; assay type: functional, cell-based; details: PC-3, 72 h
PC-3 [11] = assay: Induction of apoptosis in human PC-3 cells assessed as downregulation of bcl-2 level at 50 to 200 nM incubated for 24 hrs by Western blot analysis; assay type: functional, cell-based; details: dose 50-200 nM
PC-3 [12] = assay: Induction of immunogenic cell death in human PC-3 cells assessed as increase in CRT translocation to cell surface at 200 nM measured after 12 hrs in presence of TUDCA by DAPI staining based analysis; assay type: functional
PC-3 [13] = assay: Induction of apoptosis in human PC-3 cells assessed as early apoptotic cells at 200 nM measured after 24 hrs by annexin V-FITC and PI staining based flow cytometry analysis (reference value: 1.03%); assay type: functional
PC-3 [14] = assay: Inhibition of autophagy in human PC-3 cells assessed as decrease in colocalization region at 50 to 200 uM measured after 3 hrs by immunofluorescence imaging based analysis; assay type: functional, cell-based; details: dose 50-200 µM
PC-3 [15] = assay: Induction of apoptosis in human PC-3 cells assessed as late apoptotic cells at 200 nM measured after 24 hrs by annexin V-FITC and PI staining based flow cytometry analysis (reference value: 2.37%); assay type: functional
Cell membrane = assay: Induction of mitochondrial membrane potential loss in human PC-3 cells assessed as increase in green fluorescence at 50 to 200 nM incubated for 24 hrs by JC-1 staining based confocal microscopy analysis; details: dose 50-200 nM
[16] = Antitumor immunity against mouse RM1 cells homografted in C57BL/6 mouse model assessed as increase in tumor infiltrating CD3+CD8+T cells (CTLs) at 5 mg/kg, iv administered every two days for 14 days by flow cytometry analysis (reference value: 0.89%); assay type: functional; details: time 14 day
PC-3 [17] = assay: Induction of apoptosis in human PC-3 cells assessed as necrotic cells at 100 nM measured after 24 hrs by annexin V-FITC and PI staining based flow cytometry analysis (reference value: 6.01%); assay type: functional
PC-3 [18] = assay: Induction of cell cycle arrest in human PC-3 cells assessed as accumulation of cells at S phase at 50 nM incubated for 24 hrs by flow cytometry analysis (reference value: 31.3%); assay type: functional
PC-3 [19] = assay: Induction of apoptosis in human PC-3 cells assessed as viable cells at 50 nM measured after 24 hrs by annexin V-FITC and PI staining based flow cytometry analysis (reference value: 90.6%); assay type: functional; details: read-out: Activity
[20] = Toxicity in ICR mouse assessed as effect on ALT level at 10 mg/kg, ip measured for 14 days; assay type: organism-based; details: in vivo, 336 h, time 14 day
PC-3 [21] = assay: Induction of apoptosis in human PC-3 cells assessed as upregulation of cleaved caspase-3 level at 50 to 200 nM incubated for 24 hrs by Western blot analysis; assay type: functional, cell-based; details: dose 50-200 nM
PC-3 [22] = assay: Induction of apoptosis in human PC-3 cells assessed as increase in p-bim-EL level at 50 to 200 nM incubated for 24 hrs by Western blot analysis; assay type: functional, cell-based; details: dose 50-200 nM
PC-3 [23] = assay: Induction of immunogenic cell death in human PC-3 cells assessed as effect on CRT expression at 50 to 200 nM; assay type: functional, cell-based; details: dose 50-200 nM

## COc1cc(-c2nc(C(N)=O)cc3cc4c(cc23)OCCO4)cc(Br)c1OC
PC-3 [1]
  Activity: inactive
[2]
  Activity: Non-Toxic
[3]
  Flu intensity: 151.3
PC-3 [4]
  Activity: 34.1%
PC-3 [5]
  Activity: Active
PC-3 [6]
  inhibition: Dose-Dependent Effect
PC-3 [7]
  Activity: 3.51%
[8]
  Activity: Non-Toxic
PC-3 [9]
  Activity: Active
PC-3 [10]
  IC50: 60 nM
PC-3 [11]
  Activity: Active
PC-3 [12]
  Activity: inactive
PC-3 [13]
  Activity: 22.7%
PC-3 [14]
  inhibition: Active
PC-3 [15]
  Activity: 19.4%
Cell membrane
  Activity: Active
[16]
  Activity: 1.59%
PC-3 [17]
  Activity: 6.41%
PC-3 [18]
  Activity: 29.3%
PC-3 [19]
  viability at 0.05 µM: 87.6%
[20]
  Activity: Non-Toxic
PC-3 [21]
  Activity: Active
PC-3 [22]
  Activity: Active
PC-3 [23]
  Activity: Active
